From patent US20110064694A1, “ANTI-HEPATITIS C ACTIVITY OF MESO-TETRAKIS-PORPHYRIN ANALOGUES” (YALE UNIVERSITY, priority 2009, published 2011)
Read-outs that look alike come from different tables or passages of the source.

Tests used:
[1] = system: mitochondrial DNA content of CEM cells; assay: Mitochondrial DNA toxicity, slot blot of CEM cell lysates; format: cell-based; details: read-out: Mitochondrial DNA Toxicity IC50 CEM
Description: Quantitation of mitochondrial DNA content was performed as previously published (18). Briefly, CEM cell lysates were spotted onto Hybond paper using the Miliford II slot blot apparatus (Schleicher & Schuell). MTDNA was detected with mtDNA-specific probe and then reprobed with Alu probe for internal control. The autoradiographic bands were quantified on scanning densitometer (Molecular Dynamics).

[2] = Cytotoxicity in Huh-7 cells (methylene blue or CellTiter-Glo); format: cell-based; details: human; Huh-7 cells, 3 days
Description: (§1) Determination of cytotoxicity and mitochondrial DNA toxicity. Exponentially growing Huh-7 cells were seeded at a density of 1×10^4 cells per well in a 24-well plate and incubated with TPP analogues for 3 days. Cells were fixed and stained with 0.5% methylene blue in 50% ethanol followed by extensive washing. After the plates were air dried, cells were solubilized in 1% sarkosyl and cell growth was determined from the extent of absorption by spectrophotometric measurements at 595 nm (Biotek Instruments). For compounds whose dark color interfered with 595-nm reading, cytotoxicity was measured by the CellTiter-Glo luminesecent cell viability assay following manufacturer's description (Promega). Cytotoxicity in MT-2 cells was determined from colorimetric quantitation of uninfected MT-2 cells after 5 days of coincubation.

HBV = assay: Anti-HBV activity in 2.2.15 cells by Southern DNA hybridization; format: cell-based; details: read-out: Antiviral Activity EC50 HBV
Description: (§2) Determination of antiviral activities. Ff-luciferase reporter activity was used to monitor the replication of HCV replicons in Huhluc/neo-ET cells free from G418. Replicon cells were seeded at the density of 5×10^3 cells per well in 96-well plates. The following day, replicon cells were incubated in duplicates with DMSO or serially diluted tetraphenylporphyrin (TPP) analogues at 37″C. 72 hrs after co-incubation, cells were lysed with ice-cold passive lysis reagent after PBS wash, and the luciferase activity was measured with the luciferase assay kit (Promega) and Tecan FARCyte luminometer (GE Healthcare) following the manufacturers' descriptions. The relative light units (RLU) were adjusted as percentage readings of the compound-free controls and the 50% effective concentration (EC50) was determined from dose-effect curve by nonlinear regression analysis using Origin 6.1 (OriginLab Software). TPP analogues were also screened in vitro against HIV-I IIIB and HBV as previously described (26,41). Briefly 1×10^3 MT-2 cells per well were exposed in triplets to 0.1TC1D50/cell (50% of the tissue culture infectious dose) of HIV-1 IIIB and cultured in the presence of compounds. The EC50 values were estimated by MTT-based colorimetric quantitation of viral CPE after 5 days. Anti-HBV activities were evaluated in 2.2.15 cells by means of Southern DNA hybridization.

cytochrome c = cytochrome c (Equus caballus, UniProt P00004); details: read-out: Kd, binding to cyt c; cited from earlier work
HIV-1 IIIB = assay: Anti-HIV activity in MT-2 cells, MTT quantitation of viral CPE; format: cell-based; details: read-out: Antiviral Activity EC50 HIV-1 IIIB
Description: as §2

[3] = system: HCV genotype 1b (Con1) replicon; assay: Effect of serum concentration on anti-HCV activity, luciferase assay in Huh-luc/neo-ET cells; format: cell-based, Hepatitis C virus; details: for Fold Change in EC50 5% FBS: EC50 at 5% FBS as one fold; for EC50: 72 hrs; for Fold Change in EC50 10% FBS / Fold Change in EC50 20% FBS / Fold Change in EC50 40% FBS: relative to EC50 at 5% FBS
Description: Cells were harvested after 72 hrs for luciferase activity assays.
Huh-luc/neo-ET cells were incubated with compound 1, 4 or 6 for 72 hrs and the anti-HCV activity was evaluated by measuring the reduction of reporter luciferase activities.

[4] = Cytotoxicity in uninfected MT-2 cells; format: cell-based; details: human; uninfected MT-2 cells, 5 days
Description: as §1

[5] = system: HCV genotype 2a (JFH-1) replicon; assay: HCV RNA quantification by qRT-PCR in YSGR-JFH cells; format: cell-based, Hepatitis C virus; details: Hepatitis C virus, 72 h, read-out: antiviral EC50 against YSGR-JFH replicon cells
Description: (§3) Cells. HCV genotype 1b (Con 1 isolate) subgenomic replicon cell line with luciferase reporter (Huh-luc/neo-ET) was kindly provided by Ralf Bartenschlager from the University of Heidelberg (37). Huh-luc/neo-ET cells were cultured in Dulbecco's modified Eagle medium (DMEM , supplemented with 10% fetal bovine serum (FBS), 1 mM nonessential amino acids, and 250 μg/ml of G418 (Invitrogen). Genotype 2a (JFH-I isolate) subgenomic replicon cells YSGR-JFH were cultured in DMEM containing 10 To fetal calf serum, 1 mM nonessential amino acids and 400 μg/ml G418 (31). An additional genotype 1b (Conl) replicon cell line (4291BBix) was cultured in similar media but with 3 μg/ml blasticidin (22).
Activity of compound 6 against genotype 2a (JFH-I) replicons. In parallel to Huh-luc/neo-ET cells, 1×10^5 YSGR-JFH cells per well were incubated with DMSO control, compound 6, or recombinant human IFNα-2a (Pestka Biomedical Laboratories) in 6-well plates. Cells were harvested after 72 hrs of co-incubation and HCV RNAs were quantitated by qRT-PCR and normalized as described above.

[6] = Cytotoxicity in CEM cells; details: human
[7] = system: HCV genotype 1b (Con 1 isolate) subgenomic replicon; assay: microbe, parasite or virus in culture; format: cell-based, Hepatitis C virus; details: for improvement in anti-HCV EC50 over compound 2: relative to lead compound 2
Description: as §3, §2

Huh-7 cells = assay: Cytotoxicity in Huh-7 cells (methylene blue or CellTiter-Glo); format: cell-based
Description: as §1

MT-2 cells = assay: Cytotoxicity in uninfected MT-2 cells; format: cell-based
Description: as §1

CEM cells [8] = assay: Cytotoxicity in CEM cells; details: read-out: Cytotoxicity CC50 CEM
CEM cells [9] = system: CEM cells
[10] = Huh-luc/neo-ET, 72 hrs, luciferase, read-out: Antiviral Activity EC50 HCV

Chain of cytochrome c (P00004 2-105 limits assumed): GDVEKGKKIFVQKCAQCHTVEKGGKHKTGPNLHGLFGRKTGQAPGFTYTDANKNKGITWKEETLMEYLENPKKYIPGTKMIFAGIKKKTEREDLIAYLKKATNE

| SMILES | IC50 ([1]; CEM cells) [µM] | EC50 (HBV) [µM] | EC50 (HIV-1 IIIB; MT-2 cells, 5 days) [µM] | EC50 [7, 10] [µM] | CC50 (CEM cells [9]) [µM] | CC50 (Huh-7 cells) [µM] | CC50 (MT-2 cells) [µM] | other results |
| --- | --- | --- | --- | --- | --- | --- | --- | --- |
| O=C(O)c1ccc(-c2c3nc(c(-c4ccc(C(=O)O)cc4)c4ccc([nH]4)c(-c4ccc(C(=O)O)cc4)c4nc(c(-c5ccc(C(=O)O)cc5)c5ccc2[nH]5)C=C4)C=C3)cc1 [Compound 1, Meso-Tetra(4-carboxyphenyl)porphine] |  |  |  |  |  |  |  | IC50 ([1]; Homo sapiens, CCRF-CEM): > 50 µM; CC50 at 3 days [2]: > 50 µM; EC50 (HBV; Hepatitis B virus): > 10 µM; Kd (cytochrome c): 0.95 ± 0.25 µM; EC50 (HIV-1 IIIB; Human immunodeficiency virus 1, IIIB, MT2, 120 h): > 25 µM; Fold Change in EC50 5% FBS [3]: 1.00; EC50 ([3]; Hepatitis C virus, Huh-luc/neo-ET, read-out: EC50 10% FBS, 10% FBS): 0.243 ± 0.036 µM; EC50 ([3]; Hepatitis C virus, Huh-luc/neo-ET, read-out: EC50 20% FBS, 20% FBS): 0.513 ± 0.069 µM; EC50 ([3]; Hepatitis C virus, Huh-luc/neo-ET, 5% FBS, read-out: EC50 5% FBS): 0.124 ± 0.008 µM; EC50 ([3]; Hepatitis C virus, Huh-luc/neo-ET, 40% FBS, read-out: EC50 40% FBS): 0.948 ± 0.089 µM; EC50 ([3]; Hepatitis C virus, Huh-luc/neo-ET, extrapolation of the plot of EC50 vs serum amount, read-out: EC50 0% FBS (Theoretical)): 0.0482 µM; Fold Change in EC50 10% FBS [3]: 1.95 ± 0.16; Fold Change in EC50 20% FBS [3]: 4.16 ± 0.82; Fold Change in EC50 40% FBS [3]: 7.62 ± 0.46; CC50 at 5 days [4]: > 25 µM; EC50 [5]: 1.9 µM; CC50 [6]: 34 µM; EC50 ([7]; Hepatitis C virus, Huh-luc/neo-ET, 72 hrs, luciferase, read-out: Antiviral Activity EC50 HCV): 0.243 ± 0.0359 µM; improvement in anti-HCV EC50 over compound 2 [7]: Over 7 fold |
| O=C(O)CNC(=O)c1ccc(-c2c3nc(c(-c4ccc(C(=O)NCC(=O)O)cc4)c4ccc([nH]4)c(-c4ccc(C(=O)NCC(=O)O)cc4)c4nc(c(-c5ccc(C(=O)NCC(=O)O)cc5)c5ccc2[nH]5)C=C4)C=C3)cc1 [Compound 2] | 15 ± 3.7 | > 10 | > 25 | 1.8 ± 0.7 |  |  |  | CC50 (Huh-7 cells; Huh-7 cells, 3 days, read-out: Cytotoxicity CC50 Huh-7): > 50 µM; CC50 (MT-2 cells; uninfected MT-2 cells, 5 days, read-out: Cytotoxicity CC50 MT-2): 3.2 ± 1.13 µM; CC50 (CEM cells [8]): 27 ± 15.1 µM |
| O=C(O)c1cc(C(=O)O)cc(-c2c3nc(c(-c4cc(C(=O)O)cc(C(=O)O)c4)c4ccc([nH]4)c(-c4cc(C(=O)O)cc(C(=O)O)c4)c4nc(c(-c5cc(C(=O)O)cc(C(=O)O)c5)c5ccc2[nH]5)C=C4)C=C3)c1 [Compound 3] | 25 | 7 | > 100 | 13.6 ± 1.1 | > 50 | > 50 | 22 |  |
| O=C(O)c1ccc(-c2ccc(-c3c4nc(c(-c5ccc(-c6ccc(C(=O)O)cc6)cc5)c5ccc([nH]5)c(-c5ccc(-c6ccc(C(=O)O)cc6)cc5)c5nc(c(-c6ccc(-c7ccc(C(=O)O)cc7)cc6)c6ccc3[nH]6)C=C5)C=C4)cc2)cc1 [Compound 4, Tetracarboxybiphenylporphyrin] | 6 | > 10 | > 25 | 0.877 ± 0.0289 | 10 | 32.2 ± 4.14 | > 25 | Kd (cytochrome c): 17 ± 0.84 µM; EC50 ([3]; 5% FBS, read-out: EC50 5% FBS): 0.633 ± 0.176 µM; EC50 ([3]; 40% FBS, read-out: EC50 40% FBS): 1.48 ± 0.015 µM; Fold Change in EC50 5% FBS [3]: 1.00; EC50 ([3]; extrapolation of the plot of EC50 vs serum amount, read-out: EC50 0% FBS (Theoretical)): 0.38 µM; EC50 ([3]; read-out: EC50 10% FBS, 10% FBS): 0.877 ± 0.029 µM; EC50 ([3]; read-out: EC50 20% FBS, 20% FBS): 1.21 ± 0.056 µM; Fold Change in EC50 10% FBS [3]: 1.46 ± 0.42; Fold Change in EC50 20% FBS [3]: 2.01 ± 0.52; Fold Change in EC50 40% FBS [3]: 2.48 ± 0.74 |
| O=C(O)CNC(=O)c1ccc(-c2ccc(-c3c4nc(c(-c5ccc(-c6ccc(C(=O)NCC(=O)O)cc6)cc5)c5ccc([nH]5)c(-c5ccc(-c6ccc(C(=O)NCC(=O)O)cc6)cc5)c5nc(c(-c6ccc(-c7ccc(C(=O)NCC(=O)O)cc7)cc6)c6ccc3[nH]6)C=C5)C=C4)cc2)cc1 [Compound 5] | > 50 | > 20 | 1.5 ± 0.436 | 0.148 ± 0.006 | > 50 | > 50 | 13 ± 4.36 | improvement in anti-HCV EC50 over compound 2 [7]: 12 fold |
| O=C(O)CNC(=O)c1cc(C(=O)NCC(=O)O)cc(-c2ccc(-c3c4nc(c(-c5ccc(-c6cc(C(=O)NCC(=O)O)cc(C(=O)NCC(=O)O)c6)cc5)c5ccc([nH]5)c(-c5ccc(-c6cc(C(=O)NCC(=O)O)cc(C(=O)NCC(=O)O)c6)cc5)c5nc(c(-c6ccc(-c7cc(C(=O)NCC(=O)O)cc(C(=O)NCC(=O)O)c7)cc6)c6ccc3[nH]6)C=C5)C=C4)cc2)c1 [Compound 7] | 12.5 | > 10 | 1.05 ± 0.071 | > 12.5 | > 50 | 12.5 | 15 ± 4.24 |  |
| O=C(O)c1cccc(-c2ccc(-c3c4nc(c(-c5ccc(-c6cccc(C(=O)O)c6)cc5)c5ccc([nH]5)c(-c5ccc(-c6cccc(C(=O)O)c6)cc5)c5nc(c(-c6ccc(-c7cccc(C(=O)O)c7)cc6)c6ccc3[nH]6)C=C5)C=C4)cc2)c1 [Compound 9] | 22 | 8 | > 25 | 0.764 ± 0.06 | 50 | 13 ± 0.7 | > 25 |  |
| C[N+](C)(C)c1ccc(-c2c3nc(c(-c4ccc([N+](C)(C)C)cc4)c4ccc([nH]4)c(-c4ccc([N+](C)(C)C)cc4)c4nc(c(-c5ccc([N+](C)(C)C)cc5)c5ccc2[nH]5)C=C4)C=C3)cc1 [TTMAPP, 5,10,I5,20-Tetrakis (4(trimethylammonio)-phenyl)-21H,23H-porphine, reference compound] |  |  |  |  |  |  |  | EC50 ([7]; HCV replicons in vitro, read-out: anti-HCV EC50): 3.58 µM |
